Laboratory results taken from US9669051B2, “Dietary fiber compositions with metformin, sitagliptin, or a combination thereof for the treatment of metabolic disease” (Inovobiologic Inc., priority 2012, dated 2017).

Assays:
Zucker FA/FA Rat Model [1] = assay: Example 7: body weight and food consumption; format: in vivo
Experimental: 44 young adult (9 week old) male rats (Zucker ZDF/Crl-Lepr^fa/fa), were obtained from Charles River Laboratories, Kingston, N.Y. […] The rats were housed in cages which conformed to size standards in Guide for the Care and Use of Laboratory Animals (Nat'l Res. Council, 1996). Bedding was changed at least twice per week. The animals were maintained at a temperature range of 18-22° C., humidity 44-68%, and a photoperiod of 12 hour light/dark cycle. The rats were acclimated for 4 days prior to the start of the study. Each animal was given a sequential number and was uniquely identified with a stainless steel ear tag or other appropriate, permanent method. Morbidity and mortality checks were carried out twice daily during the study. The animals were randomly assigned to one of four groups: (1) Control 5% cellulose fiber/chow [C]; (2) 5% PGX/chow [PGX]; […] Filtered tap water was available ad libitum. The test diets were nearly isoenergetic (PGX diet provided 3.98 kcal/g and cellulose diet provided 3.90 kcal/g). […] Sitagliptin was administered in the morning, with samples and data collected after treatment.

Zucker FA/FA Rat Model [2] = assay: Example 7: hemoglobin glycosylation (HbA1c); format: in vivo
Experimental: The extent of hemoglobin glycosylation was determined using a clinical analyzer (e.g., Bayer DCA2000). Blood samples for analysis were collected via tail nick.

Zucker FA/FA Rat Model [3] = assay: Example 7: clinical chemistry of terminal blood sample; format: in vivo
Experimental: (§1) A blood sample was collected via retroorbital bleed (under isoflurane anesthesia) during the takedown phase. A portion of this sample was tested for lipid concentrations (total, LDL, and HDL cholesterol and triglycerides) using an analyzer (e.g., Polymer Technology Systems CardioChek PA). Plasma was separated by centrifugation and flash-frozen for DPPIV activity determination. The remainder was prepared for comprehensive clinical chemistry analysis.

Zucker FA/FA Rat Model [4] = assay: Example 7: necropsy histopathology of liver, kidney and pancreas; format: in vivo; conditions: week 7 necropsy
Experimental: Rats were fasted overnight and given their regular sitagliptin treatment in the morning. Following the in-life procedures, rats were anesthetized with isoflurane, and a blood sample was collected via cardiac puncture. No peptidase inhibitors were used. Following sample collection, a limited necropsy was performed. A section of ileum (approximately one inch, collected one inch rostral to the cecum) was rinsed in chilled saline and flash frozen; this sample was analyzed for DPPIV mRNA. One kidney was flash-frozen for DPPIV mRNA analysis; one liver lobe was flash frozen for DPPIV activity and mRNA analysis. The pancreas (collected as a pancreatic pluck, with associated tissue including the remainder of the intestine), one liver lobe and one kidney were post-fixed for staining with hematoxylin and eosin. One liver lobe was snap-frozen for staining with Sudan Black. The tissue samples were forwarded to Histo-Scientific Research Laboratories Inc. (Mount Jackson, Va.) for histological processing and for pathological evaluation by a board-certified pathologist. The pathology analysis was based on the gross and microscopic evaluation of the liver (two lobes), right kidney and pancreas from 39 male rats.

Zucker FA/FA Rat Model [5] = assay: Example 7: non-fasted and 16 h fasted blood glucose; format: in vivo
Experimental: Glucose concentrations were determined using a hand-held glucose meter (e.g., Bayer Asencia Elite). Blood was collected via tail nick following sitagliptin administration; one sample was collected when food was available for the previous 24 hours (non-fasted), and one sample was collected on another day when food was not available overnight (16 h fasted).

Zucker FA/FA Rat Model [6] = assay: Example 7: lipid determinations; format: in vivo; conditions: finding in words, with reference to the cellulose control; listed as JANUVIA alone
Experimental: as §1

Zucker FA/FA Rat Model [7] = assay: Example 7: fasted oral glucose tolerance test (OGTT), glucose and serum insulin; format: in vivo; conditions: week 6, 16 h fasted
From the text: The remainder of the sample was allowed to clot, and centrifuged to separate serum. Serum samples were frozen for insulin analysis.

Zucker FA/FA Rat Model [8] = assay: Example 7: body composition by dual-energy X-ray absorptiometry (DEXA); format: in vivo
Experimental: Body composition was measured using dual-energy X-ray absorptiometry (DEXA) of the carcasses at the end of the study (i.e., after a limited necropsy for histopathology samples). The primary endpoints were fat mass, lean mass and bone mineral density. Tissue composition (i.e., % body fat) and fat free mass were also reported, but the information on these measurements was redundant with other measures.

[9] = in words; cited from earlier work
[10] = finding in words, with reference to the cellulose control
[11] = finding in words, with reference to the cellulose control, listed as JANUVIA alone

N[C@@H](CC(=O)N1CCn2c(nnc2C(F)(F)F)C1)Cc1cc(F)c(F)cc1F [Cellulose-JANUVIA, (R)-4-oxo-4-[3-(trifluoromethyl)-5,6-dihydro[1,2,4]triazolo[4,3-a]pyrazin-7(8H)-yl]-1-(2,4,5-trifluorophenyl)butan-2-amine]
Baseline body weight (Zucker FA/FA Rat Model [1]; Baseline): 297.9 ± 3.7 g
Mean food consumption (Zucker FA/FA Rat Model [1]; averaged for each rat over the study): 22.9 ± 0.7 g/day
Week 7 body weight (Zucker FA/FA Rat Model [1]; week 7): 411.0 ± 16.1 g
Hemoglobin glycosylation (Zucker FA/FA Rat Model [2]; Baseline): 4.4 ± 0.1%
Hemoglobin glycosylation (Zucker FA/FA Rat Model [2]; Week 6): 6.8 ± 0.4%
Serum ALT/SGPT (terminal) (Zucker FA/FA Rat Model [3]; [10]): tended to decrease ALT activity
Serum albumin (terminal) (Zucker FA/FA Rat Model [3]; [10]): did not increase albumin concentrations
Serum alkaline phosphatase (terminal) (Zucker FA/FA Rat Model [3]; [10]): significantly reduced alkaline phosphatase activity
total serum protein (terminal) (Zucker FA/FA Rat Model [3]; [10]): did not increase total protein concentrations
blood urea nitrogen (terminal) (Zucker FA/FA Rat Model [3]; [11]): tended to decrease BUN
Calcium (Zucker FA/FA Rat Model [3]; terminal blood sample, week 7): 11.2 ± 0.2 mg/dL
Creatine kinase (Zucker FA/FA Rat Model [3]; terminal blood sample, week 7): 76.3 ± 12.8 IU/L
Phosphorus (Zucker FA/FA Rat Model [3]; terminal blood sample, week 7): 6.0 ± 0.2 mg/dL
Kidney: degeneration/regeneration, tubules, group incidence (Zucker FA/FA Rat Model [4]; animals affected/examined): 9/9
Kidney: dilatation, tubules, group incidence (Zucker FA/FA Rat Model [4]; animals affected/examined): 9/9
Kidney: dilation, renal pelvis, group incidence (Zucker FA/FA Rat Model [4]; animals affected/examined): 9/9
Kidney: inflammation, renal pelvis, group incidence (Zucker FA/FA Rat Model [4]; animals affected/examined): 2/9
Kidney: mesangial expansion, group incidence (Zucker FA/FA Rat Model [4]; animals affected/examined): 9/9
Kidney: mineralization, renal pelvis, group incidence (Zucker FA/FA Rat Model [4]; animals affected/examined): 2/9
Liver: Sudan black positive hepatocytes, group incidence (Zucker FA/FA Rat Model [4]; animals affected/examined): 9/9
Liver: cystic hepatocytes degeneration with fibrosis, group incidence (Zucker FA/FA Rat Model [4]; animals affected/examined): 1/9
Liver: hepatic focal infarction, group incidence (Zucker FA/FA Rat Model [4]; animals affected/examined): 1/9
Liver: vacuolation, hepatocytes, macrovesicular, group incidence (Zucker FA/FA Rat Model [4]; animals affected/examined): 7/9
Liver: vacuolation, hepatocytes, microvesicular, group incidence (Zucker FA/FA Rat Model [4]; animals affected/examined): 9/9
Pancreas: fibrosis, islets, group incidence (Zucker FA/FA Rat Model [4]; animals affected/examined): 9/9
Pancreas: hemorrhage/hemosiderin, islets, group incidence (Zucker FA/FA Rat Model [4]; animals affected/examined): 9/9
Pancreas: hypertrophy, islets, group incidence (Zucker FA/FA Rat Model [4]; animals affected/examined): 9/9
Pancreas: islet cell degeneration, group incidence (Zucker FA/FA Rat Model [4]; animals affected/examined): 9/9
Pancreas: mononuclear cell infiltrate, islets, group incidence (Zucker FA/FA Rat Model [4]; animals affected/examined): 9/9
Pancreas: percent of islet area containing positive insulin positive cells (Zucker FA/FA Rat Model [4]; group average): 40%
Liver: Sudan black positive hepatocytes, group average score (Zucker FA/FA Rat Model [4]; score 0-5): 2.8
Kidney: degeneration/regeneration, tubules, group average score (Zucker FA/FA Rat Model [4]; severity score 0-5): 2.3
Kidney: dilatation, tubules, group average score (Zucker FA/FA Rat Model [4]; severity score 0-5): 2.8
Kidney: dilation, renal pelvis, group average score (Zucker FA/FA Rat Model [4]; severity score 0-5): 2.3
Kidney: inflammation, renal pelvis, group average score (Zucker FA/FA Rat Model [4]; severity score 0-5): 0.8
Kidney: mesangial expansion, group average score (Zucker FA/FA Rat Model [4]; severity score 0-5): 2.1
Kidney: mineralization, renal pelvis, group average score (Zucker FA/FA Rat Model [4]; severity score 0-5): 0.2
Liver: cystic hepatocytes degeneration with fibrosis, group average score (Zucker FA/FA Rat Model [4]; severity score 0-5): 0.1
Liver: hepatic focal infarction, group average score (Zucker FA/FA Rat Model [4]; severity score 0-5): 0.2
Liver: vacuolation, hepatocytes, macrovesicular, group average score (Zucker FA/FA Rat Model [4]; severity score 0-5): 0.9
Liver: vacuolation, hepatocytes, microvesicular, group average score (Zucker FA/FA Rat Model [4]; severity score 0-5): 2.6
Pancreas: fibrosis, islets, group average score (Zucker FA/FA Rat Model [4]; severity score 0-5): 2.1
Pancreas: hemorrhage/hemosiderin, islets, group average score (Zucker FA/FA Rat Model [4]; severity score 0-5): 1.1
Pancreas: hypertrophy, islets, group average score (Zucker FA/FA Rat Model [4]; severity score 0-5): 3.8
Pancreas: islet cell degeneration, group average score (Zucker FA/FA Rat Model [4]; severity score 0-5): 1.4
Pancreas: mononuclear cell infiltrate, islets, group average score (Zucker FA/FA Rat Model [4]; severity score 0-5): 1.0
16 h fasted blood glucose (Zucker FA/FA Rat Model [5]; Baseline): 98.4 ± 5.4 mg/dL
Non-fasted blood glucose (Zucker FA/FA Rat Model [5]; Baseline): 231.8 ± 31.2 mg/dL
16 h fasted blood glucose (Zucker FA/FA Rat Model [5]; Week 6): 331.1 ± 16.4 mg/dL
Non-fasted blood glucose (Zucker FA/FA Rat Model [5]; Week 6): 500.9 ± 17.4 mg/dL
total cholesterol (week 7) (Zucker FA/FA Rat Model [6]): not effective to lower blood cholesterol
OGTT serum insulin Baseline (Zucker FA/FA Rat Model [7]; before glucose): 6.6 ± 1.1 ng/mL
OGTT blood glucose Baseline (Zucker FA/FA Rat Model [7]; before glucose 1 g/kg PO): 331 ± 16.4 mg/dL
OGTT serum insulin AUC(0-120), baseline-subt (Zucker FA/FA Rat Model [7]; glucose 1 g/kg PO): -3.0 ± 22.7 ng·h/dL
Fat free mass (Zucker FA/FA Rat Model [8]; DEXA at end of study): 133.0 ± 5.6 g
Tissue composition (% fat) (Zucker FA/FA Rat Model [8]; DEXA at end of study): 63.3 ± 0.9 % fat
Lean Mass (terminal) (Zucker FA/FA Rat Model [8]; [11]): did not show an effect on lean body mass

N[C@@H](CC(=O)N1CCn2c(nnc2C(F)(F)F)C1)Cc1cc(F)c(F)cc1F [Sitagliptin phosphate monohydrate, 7-[(3R)-3-amino-1-oxo-4-(2,4,5-trifluorophenyl)buty]-5,6,7,8-tetrahydro-3-(trifluoromethyl)-1,2,4-triazolo[4,3-a]pyrazine phosphate (1:1) monohydrate]
Solubility in water [9]: soluble in water
